Source: PubChem BioAssay AID2060491 (Molecular Pharmacology Branch, DTP, NCI, 2025)
Values belong to the compound of their own block, whether it stands above or below them.

Test system: 857933-349-R-J2-PDC complex spheroids, viability
Test: Anticancer human tumor 857933-349-R-J2-PDC patient-derived colon adenocarcinoma cell line growth inhibition [GQUAD]
Settings: for IC50: curve of first compound; for viability, T/C: stronger effect = lower value
Outline: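 Multi-cell-type spheroids of tumor cells with HUVEC and mesenchymal stem cells, treated with drug combinations. Concentrations descend in half-log steps from near clinical Cmax, or from 10 microM where Cmax is unknown; viability read-out.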

[1] = second compound 0.0316 µM, first compound 0.000999 µM
[2] = second compound 0.0316 µM, first compound 0.00316 µM
[3] = second compound 0.0316 µM, first compound 0.00999 µM
[4] = second compound 0.0316 µM, first compound 0.0316 µM
[5] = second compound 0.0316 µM, first compound 0.0999 µM
[6] = second compound 0.0316 µM, first compound 0.316 µM
[7] = second compound 0.1 µM, first compound 0.000999 µM
[8] = second compound 0.1 µM, first compound 0.00316 µM
[9] = second compound 0.1 µM, first compound 0.00999 µM
[10] = second compound 0.1 µM, first compound 0.0316 µM
[11] = second compound 0.1 µM, first compound 0.0999 µM
[12] = second compound 0.1 µM, first compound 0.316 µM
[13] = second compound 0.316 µM, first compound 0.000999 µM
[14] = second compound 0.316 µM, first compound 0.00316 µM
[15] = second compound 0.316 µM, first compound 0.00999 µM
[16] = second compound 0.316 µM, first compound 0.0316 µM
[17] = second compound 0.316 µM, first compound 0.0999 µM
[18] = second compound 0.316 µM, first compound 0.316 µM
[19] = second compound 1 µM, first compound 0.000999 µM
[20] = second compound 1 µM, first compound 0.00316 µM
[21] = second compound 1 µM, first compound 0.00999 µM
[22] = second compound 1 µM, first compound 0.0316 µM
[23] = second compound 1 µM, first compound 0.0999 µM
[24] = second compound 1 µM, first compound 0.316 µM
[25] = second compound 3.16 µM, first compound 0.000999 µM
[26] = second compound 3.16 µM, first compound 0.00316 µM
[27] = second compound 3.16 µM, first compound 0.00999 µM
[28] = second compound 3.16 µM, first compound 0.0316 µM
[29] = second compound 3.16 µM, first compound 0.0999 µM
[30] = second compound 3.16 µM, first compound 0.316 µM
[31] = second compound 10 µM, first compound 0.000999 µM
[32] = second compound 10 µM, first compound 0.00316 µM
[33] = second compound 10 µM, first compound 0.00999 µM
[34] = second compound 10 µM, first compound 0.0316 µM
[35] = second compound 10 µM, first compound 0.0999 µM
[36] = second compound 10 µM, first compound 0.316 µM
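Note: spheroids exposed to compounds for one week before readout.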
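Throughout, for viability, T/C: percent viability relative to vehicle DMSO wells taken as 100%.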

IC50 (second compound 0.0316 µM): 0.00353 µM
IC50 (second compound 0.1 µM): 0.00389 µM
IC50 (second compound 0.316 µM): < 0.000999 µM
IC50 (second compound 1 µM): < 0.000999 µM
IC50 (second compound 3.16 µM): < 0.000999 µM
IC50 (second compound 10 µM): < 0.000999 µM
Compound: CCc1c2c(nc3ccc(O)cc13)-c1cc3c(c(=O)n1C2)COC(=O)[C@]3(O)CC + Cc1cnc(CNC(=O)c2c(=O)c3ccc(N4CCCN(C)CC4)nc3n3c2sc2ccccc23)cn1
viability, T/C [1]: 89%
viability, T/C [2]: 43.6%
viability, T/C [3]: 41.9%
viability, T/C [4]: 16.5%
viability, T/C [5]: 10.4%
viability, T/C [6]: 8.23%
viability, T/C [7]: 55.4%
viability, T/C [8]: 55.9%
viability, T/C [9]: 31.9%
viability, T/C [10]: 11%
viability, T/C [11]: 6.26%
viability, T/C [12]: 3.59%
viability, T/C [13]: 25.9%
viability, T/C [14]: 17.3%
viability, T/C [15]: 5.28%
viability, T/C [16]: 2.97%
viability, T/C [17]: 2.84%
viability, T/C [18]: 0.55%
viability, T/C [19]: 3.82%
viability, T/C [20]: 3.55%
viability, T/C [21]: 2.71%
viability, T/C [22]: 1.95%
viability, T/C [23]: 1.2%
viability, T/C [24]: 0.14%
viability, T/C [25]: 2.34%
viability, T/C [26]: 1.9%
viability, T/C [27]: 1.86%
viability, T/C [28]: 0.77%
viability, T/C [29]: 0.1%
viability, T/C [30]: 0.13%
viability, T/C [31]: 1.54%
viability, T/C [32]: 0.97%
viability, T/C [33]: 0.21%
viability, T/C [34]: 0.17%
viability, T/C [35]: 0.16%
viability, T/C [36]: 0.19%

Compound: Cn1ncnc1[C@H]1c2n[nH]c(=O)c3cc(F)cc(c23)N[C@@H]1c1ccc(F)cc1 + Cc1[nH]c2ccc(F)cc2c1-c1nc2c3cccnc3c3ncccc3c2[nH]1
IC50 (second compound 0.0316 µM): > 0.316 µM
IC50 (second compound 0.1 µM): > 0.316 µM
IC50 (second compound 0.316 µM): > 0.316 µM
IC50 (second compound 1 µM): > 0.316 µM
IC50 (second compound 3.16 µM): > 0.316 µM
IC50 (second compound 10 µM): > 0.316 µM
viability, T/C [1]: 104%
viability, T/C [2]: 86%
viability, T/C [3]: 103%
viability, T/C [4]: 89.7%
viability, T/C [5]: 106%
viability, T/C [6]: 109%
viability, T/C [7]: 95.8%
viability, T/C [8]: 105%
viability, T/C [9]: 98%
viability, T/C [10]: 92.7%
viability, T/C [11]: 102%
viability, T/C [12]: 104%
viability, T/C [13]: 97.3%
viability, T/C [14]: 112%
viability, T/C [15]: 97%
viability, T/C [16]: 104%
viability, T/C [17]: 102%
viability, T/C [18]: 98.6%
viability, T/C [19]: 96.1%
viability, T/C [20]: 101%
viability, T/C [21]: 97.4%
viability, T/C [22]: 95.8%
viability, T/C [23]: 104%
viability, T/C [24]: 94.8%
viability, T/C [25]: 92.2%
viability, T/C [26]: 101%
viability, T/C [27]: 91.9%
viability, T/C [28]: 103%
viability, T/C [29]: 114%
viability, T/C [30]: 96.9%
viability, T/C [31]: 102%
viability, T/C [32]: 99.3%
viability, T/C [33]: 97.1%
viability, T/C [34]: 99.2%
viability, T/C [35]: 104%
viability, T/C [36]: 94.6%

IC50 (second compound 0.0316 µM): > 10 µM
IC50 (second compound 0.1 µM): > 10 µM
IC50 (second compound 0.316 µM): < 0.0316 µM
IC50 (second compound 1 µM): < 0.0316 µM
IC50 (second compound 3.16 µM): < 0.0316 µM
IC50 (second compound 10 µM): < 0.0316 µM
Compound: O=C(c1cc(Cc2n[nH]c(=O)c3ccccc23)ccc1F)N1CCN(C(=O)C2CC2)CC1 + Cc1cnc(CNC(=O)c2c(=O)c3ccc(N4CCCN(C)CC4)nc3n3c2sc2ccccc23)cn1
viability, T/C [4]: 101%
viability, T/C (second compound 0.0316 µM, first compound 0.1 µM): 88.6%
viability, T/C [6]: 99.9%
viability, T/C (second compound 0.0316 µM, first compound 1 µM): 83.7%
viability, T/C (second compound 0.0316 µM, first compound 3.16 µM): 84.8%
viability, T/C (second compound 0.0316 µM, first compound 10 µM): 77.8%
viability, T/C [10]: 66%
viability, T/C (second compound 0.1 µM, first compound 0.1 µM): 80.9%
viability, T/C [12]: 62%
viability, T/C (second compound 0.1 µM, first compound 1 µM): 58.4%
viability, T/C (second compound 0.1 µM, first compound 3.16 µM): 68.7%
viability, T/C (second compound 0.1 µM, first compound 10 µM): 72.3%
viability, T/C [16]: 29.3%
viability, T/C (second compound 0.316 µM, first compound 0.1 µM): 31.1%
viability, T/C [18]: 26.4%
viability, T/C (second compound 0.316 µM, first compound 1 µM): 31.4%
viability, T/C (second compound 0.316 µM, first compound 3.16 µM): 34%
viability, T/C (second compound 0.316 µM, first compound 10 µM): 38.4%
viability, T/C [22]: 4.96%
viability, T/C (second compound 1 µM, first compound 0.1 µM): 4.81%
viability, T/C [24]: 4.45%
viability, T/C (second compound 1 µM, first compound 1 µM): 3.67%
viability, T/C (second compound 1 µM, first compound 3.16 µM): 5.47%
viability, T/C (second compound 1 µM, first compound 10 µM): 6.38%
viability, T/C [28]: 2.65%
viability, T/C (second compound 3.16 µM, first compound 0.1 µM): 2.92%
viability, T/C [30]: 2.93%
viability, T/C (second compound 3.16 µM, first compound 1 µM): 3.33%
viability, T/C (second compound 3.16 µM, first compound 3.16 µM): 2.59%
viability, T/C (second compound 3.16 µM, first compound 10 µM): 2.87%
viability, T/C [34]: 1.22%
viability, T/C (second compound 10 µM, first compound 0.1 µM): 2.2%
viability, T/C [36]: 2.36%
viability, T/C (second compound 10 µM, first compound 1 µM): 1.84%
viability, T/C (second compound 10 µM, first compound 3.16 µM): 2.2%
viability, T/C (second compound 10 µM, first compound 10 µM): 1.68%
